Laboratory results reported in patent US20190375786A1, “STABLE PEPTIDES AND METHODS OF USE THEREOF” (Fred Hutchinson Cancer Research Center, priority 2016, published 2019).
Positions of bridges follow the written chain, without caps; N, C: chain ends. Residues, ends and D or L forms follow the SMILES beside them.

Columns and labels:
trypsin = trypsin (Sus scrofa, UniProt P00761); experiment: Trypsin digestion resistance of soluble peptide, RP-HPLC; assay type: in vitro ADME, porcine; parameters: purchased Sigma Aldrich 6567; settings: 500 U/ml trypsin, 30 minutes at 37.5° C.; HPLC peak vs untreated peptide
Chain of trypsin (P00761 9-231): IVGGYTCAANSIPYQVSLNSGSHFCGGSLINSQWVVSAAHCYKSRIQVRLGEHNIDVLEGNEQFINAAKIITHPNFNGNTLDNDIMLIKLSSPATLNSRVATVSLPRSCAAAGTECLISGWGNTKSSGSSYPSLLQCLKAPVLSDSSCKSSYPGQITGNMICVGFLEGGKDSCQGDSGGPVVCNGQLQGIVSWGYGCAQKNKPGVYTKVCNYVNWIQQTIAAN
In short: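 12.5 μg soluble peptide digested with 500 U/ml porcine trypsin in PBS, 30 min at 37.5° C; quenched with soybean trypsin inhibitor, with or without 10 mM DTT reduction afterwards. Intact peptide assessed by C-18 RP-HPLC, 5-45% acetonitrile/0.1% TFA gradient over 10 min.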

pepsin = pepsin (Sus scrofa, UniProt P00791); experiment: Pepsin digestion resistance in simulated gastric fluid, RP-HPLC; assay type: in vitro ADME, porcine; parameters: purchased Sigma Aldrich P7012; settings: 500 U/ml pepsin in SGF pH 1.05, 30 minutes at 37.5° C.; HPLC peak vs untreated peptide
Chain of pepsin (P00791 60-385): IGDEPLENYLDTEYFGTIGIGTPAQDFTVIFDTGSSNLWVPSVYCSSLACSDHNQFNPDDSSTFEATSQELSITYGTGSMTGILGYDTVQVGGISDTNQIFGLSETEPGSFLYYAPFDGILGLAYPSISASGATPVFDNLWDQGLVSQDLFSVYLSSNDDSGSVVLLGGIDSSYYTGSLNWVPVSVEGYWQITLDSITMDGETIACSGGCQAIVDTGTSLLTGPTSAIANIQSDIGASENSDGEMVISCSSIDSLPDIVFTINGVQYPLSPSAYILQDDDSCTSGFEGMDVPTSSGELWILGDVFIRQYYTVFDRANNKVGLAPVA
In short: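 Peptide (12.5 μg) incubated 30 min at 37.5 °C with or without 500 U/ml pepsin in simulated gastric fluid (pH 1.05; 2% NaCl in 0.7% HCl); some reactions quenched with 100 mM Tris and 10 mM DTT. Intact peptide followed by C-18 RP-HPLC (5–45% acetonitrile/0.1% TFA over 10 min) at 214 and 280 nm.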

CC[C@H](C)[C@@H]1NC(=O)[C@@H]2CSSC[C@H](NC(=O)[C@H](CCCCN)NC(=O)[C@@H](NC(=O)[C@H](CC(N)=O)NC(=O)[C@@H](NC(=O)[C@@H]3CCCN3C(=O)[C@@H](NC(=O)CNC(=O)[C@H](CO)NC(=O)CN)C(C)C)[C@@H](C)CC)C(C)C)C(=O)N[C@@H](CCCNC(=N)N)C(=O)NCC(=O)N[C@@H](CO)C(=O)N[C@@H](CCCNC(=N)N)C(=O)N[C@@H](CC(=O)O)C(=O)N[C@H]3CSSC[C@H](NC(=O)[C@H](CCCCN)NC(=O)[C@H](CO)NC(=O)[C@H](CC(N)=O)NC1=O)C(=O)N[C@@H](Cc1c[nH]cn1)C(=O)N[C@H](C(=O)N[C@H](C(=O)N1CCC[C@H]1C(=O)O)[C@@H](C)O)CSSC[C@H](NC(=O)[C@@H]1CCCN1C(=O)[C@H](CC(=O)O)NC(=O)[C@H](CC(C)C)NC3=O)C(=O)N[C@@H](CCCCN)C(=O)N[C@@H](CCCCN)C(=O)N[C@@H](C)C(=O)NCC(=O)N[C@@H](CCSC)C(=O)N[C@@H](CCCNC(=N)N)C(=O)N[C@@H](Cc1ccccc1)C(=O)NCC(=O)N[C@@H](CCCCN)C(=O)N2 [compound 27] (H-GSGVPINVKCRGSRDCLDPCKKAGMRFGKCINSKCHCTP-OH; disulfide 10-30, 16-35, 20-37)
Resistance to Trypsin (500 U/ml) (trypsin): High (A peptide classified as high indicates that the majority (at least 75%) of the HPLC peak of the treated peptide is still present as compared to the HPLC peak of the untreated peptide) | Resistance to Pepsin (500 U/ml) (pepsin): High (A peptide classified as high indicates that the majority (at least 75%) of the HPLC peak of the treated peptide is still present as compared to the HPLC peak of the untreated peptide)

CC[C@H](C)[C@@H]1NC(=O)[C@@H](NC(=O)[C@H](CC(=O)O)NC(=O)[C@H](CCCCN)NC(=O)[C@H](CCC(=O)O)NC(=O)[C@H](CO)NC(=O)[C@H](CO)NC(=O)CN)CSSC[C@@H]2NC(=O)[C@@H]3CSSC[C@@H](C(=O)N[C@@H](CCCNC(=N)N)C(=O)O)NC(=O)[C@H](CCCNC(=N)N)NC(=O)[C@H](CCCCN)NC(=O)[C@H](CCC(=O)O)NC(=O)[C@@H]4CCCN4C(=O)[C@H](CC(N)=O)NC(=O)[C@H]([C@@H](C)O)NC(=O)CNC(=O)[C@H](CCCNC(=N)N)NC(=O)[C@H](CCCNC(=N)N)NC(=O)[C@H](CO)NC(=O)[C@H](CSSC[C@H](NC(=O)[C@H](CCCNC(=N)N)NC(=O)[C@H](CCC(N)=O)NC(=O)[C@H](CC(C)C)NC(=O)[C@H](Cc4c[nH]cn4)NC(=O)[C@H](CCCCN)NC1=O)C(=O)N[C@@H](CCCNC(=N)N)C(=O)N[C@@H](CCC(=O)O)C(=O)N[C@@H](CC(N)=O)C(=O)N[C@@H](CCCCN)C(=O)N[C@@H](CC(=O)O)C(=O)N3)NC(=O)[C@H](CCCCN)NC(=O)[C@H](CCCCN)NC(=O)[C@H](CO)NC2=O [compound 29] (H-GSSEKDCIKHLQRCRENKDCCSKKCSRRGTNPEKRCR-OH; disulfide 7-21, 14-25, 20-36)
Resistance to Trypsin (500 U/ml) (trypsin): Low (A peptide classified as low indicates that the majority (over 75%) of the HPLC peak of the treated peptide disappeared as compared to the HPLC peak of the untreated peptide) | Resistance to Pepsin (500 U/ml) (pepsin): High (A peptide classified as high indicates that the majority (at least 75%) of the HPLC peak of the treated peptide is still present as compared to the HPLC peak of the untreated peptide)

CC[C@H](C)[C@@H]1NC(=O)[C@H](CCC(=O)O)NC(=O)[C@H](CCCNC(=N)N)NC(=O)[C@H](CCCNC(=N)N)NC(=O)[C@@H]2CSSC[C@@H](C(=O)N[C@@H](Cc3ccc(O)cc3)C(=O)N[C@@H](CCCNC(=N)N)C(=O)N[C@@H](CC(N)=O)C(=O)O)NC(=O)[C@H](C(C)C)NC(=O)[C@@H]3CSSC[C@H](NC(=O)[C@H](CO)NC(=O)CNC(=O)CNC(=O)[C@H](CCC(N)=O)NC(=O)[C@@H](NC(=O)[C@H](CCCCN)NC(=O)[C@@H](NC(=O)[C@H](CC(N)=O)NC(=O)[C@@H](NC(=O)[C@H](CCC(N)=O)NC(=O)[C@@H](NC(=O)[C@H](CCC(N)=O)NC(=O)[C@H](CO)NC(=O)CN)C(C)C)[C@@H](C)O)C(C)C)CSSC[C@H](NC(=O)[C@H](CCCCN)NC(=O)CNC(=O)[C@H](C)NC(=O)[C@H](C)NC(=O)[C@H](C(C)C)NC(=O)CNC1=O)C(=O)N[C@@H]([C@@H](C)CC)C(=O)N[C@@H](CC(N)=O)C(=O)NCC(=O)N[C@@H](CCCCN)C(=O)N3)C(=O)N[C@@H](C)C(=O)N[C@@H](CO)C(=O)N[C@@H](C(C)C)C(=O)N2 [compound 30] (H-GSQVQTNVKCQGGSCASVCRREIGVAAGKCINGKCVCYRN-OH; disulfide 10-30, 15-35, 19-37)
Resistance to Trypsin (500 U/ml) (trypsin): Low (A peptide classified as low indicates that the majority (over 75%) of the HPLC peak of the treated peptide disappeared as compared to the HPLC peak of the untreated peptide) | Resistance to Pepsin (500 U/ml) (pepsin): Moderate (A peptide classified as medium indicates that about half (between 25% and 75%) of the HPLC peak of the treated peptide disappeared as compared to the HPLC peak of the untreated peptide)

CC[C@H](C)[C@@H]1NC(=O)[C@@H]2CSSC[C@H](NC(=O)[C@H](CCCCN)NC(=O)[C@@H](NC(=O)[C@H](CC(N)=O)NC(=O)[C@@H](NC(=O)[C@H](CC(=O)O)NC(=O)[C@@H](NC(=O)[C@H](CCC(N)=O)NC(=O)[C@H](CO)NC(=O)CN)[C@@H](C)CC)[C@@H](C)O)C(C)C)C(=O)N[C@@H](CO)C(=O)NCC(=O)N[C@@H](CO)C(=O)N[C@@H](CO)C(=O)N[C@@H](CCCCN)C(=O)N[C@H]3CSSC[C@H](NC(=O)[C@H](CCCNC(=N)N)NC(=O)CNC(=O)[C@H](CC(N)=O)NC1=O)C(=O)N[C@@H]([C@@H](C)O)C(=O)N[C@H](C(=O)N[C@@H](Cc1ccc(O)cc1)C(=O)N1CCC[C@H]1C(=O)O)CSSC[C@H](NC(=O)[C@H]([C@@H](C)CC)NC(=O)[C@H](CCCCN)NC(=O)[C@H](C(C)C)NC3=O)C(=O)N[C@@H]([C@@H](C)CC)C(=O)N[C@@H](CC(=O)O)C(=O)N[C@@H](CCCNC(=N)N)C(=O)N[C@@H](Cc1ccc(O)cc1)C(=O)N[C@@H](CC(N)=O)C(=O)N[C@@H]([C@@H](C)O)C(=O)N[C@@H](CCCNC(=N)N)C(=O)NCC(=O)N[C@@H](C)C(=O)N[C@@H](CCCCN)C(=O)N2 [compound 35] (H-GSQIDTNVKCSGSSKCVKICIDRYNTRGAKCINGRCTCYP-OH; disulfide 10-31, 16-36, 20-38)
Resistance to Trypsin (500 U/ml) (trypsin): Low (A peptide classified as low indicates that the majority (over 75%) of the HPLC peak of the treated peptide disappeared as compared to the HPLC peak of the untreated peptide) | Resistance to Pepsin (500 U/ml) (pepsin): Low (A peptide classified as low indicates that the majority (over 75%) of the HPLC peak of the treated peptide disappeared as compared to the HPLC peak of the untreated peptide)

CC[C@H](C)[C@H](NC(=O)[C@@H](NC(=O)[C@@H](NC(=O)[C@H](CO)NC(=O)CN)C(C)C)C(C)C)C(=O)NCC(=O)N[C@@H](CCC(N)=O)C(=O)N[C@@H](CCCNC(=N)N)C(=O)N[C@H]1CSSC[C@@H]2NC(=O)[C@H](CCCCN)NC(=O)CNC(=O)[C@H]([C@@H](C)O)NC(=O)[C@H](C)NC(=O)[C@H](CCCCN)NC(=O)CNC(=O)[C@H](C(C)C)NC(=O)[C@H](CC(C)C)NC(=O)[C@H](CCCCN)NC(=O)[C@H](CCCCN)NC(=O)[C@@H]3CSSC[C@@H](C(=O)O)NC(=O)[C@H](CC(=O)O)NC(=O)[C@H](CSSC[C@H](NC(=O)[C@H](CC(=O)O)NC(=O)[C@@H]4CCCN4C(=O)[C@H](CO)NC(=O)[C@H](CCCNC(=N)N)NC(=O)[C@H](Cc4ccc(O)cc4)NC1=O)C(=O)N[C@@H](Cc1ccc(O)cc1)C(=O)N[C@@H](CO)C(=O)N[C@@H](C)C(=O)N3)NC(=O)[C@H](CCCNC(=N)N)NC(=O)CNC(=O)[C@H](CC(N)=O)NC(=O)[C@H]([C@@H](C)O)NC2=O [compound 36] (H-GSVVIGQRCYRSPDCYSACKKLVGKATGKCTNGRCDC-OH; disulfide 9-30, 15-35, 19-37)
Resistance to Trypsin (500 U/ml) (trypsin): Low (A peptide classified as low indicates that the majority (over 75%) of the HPLC peak of the treated peptide disappeared as compared to the HPLC peak of the untreated peptide) | Resistance to Pepsin (500 U/ml) (pepsin): High (A peptide classified as high indicates that the majority (at least 75%) of the HPLC peak of the treated peptide is still present as compared to the HPLC peak of the untreated peptide)

CC[C@H](C)[C@@H]1NC(=O)[C@H](C)NC(=O)[C@H](CCC(=O)O)NC(=O)[C@H](CCCCN)NC(=O)[C@@H]2CSSC[C@@H](C(=O)N[C@@H](Cc3ccc(O)cc3)C(=O)N3CCC[C@H]3C(=O)O)NC(=O)[C@H](CCCCN)NC(=O)[C@@H]3CSSC[C@H](NC(=O)[C@H](CCC(=O)O)NC(=O)[C@@H]4CCCN4C(=O)[C@H](CO)NC(=O)CNC(=O)[C@H](CCCNC(=N)N)NC(=O)[C@@H](NC(=O)[C@H](CCCCN)NC(=O)[C@@H](NC(=O)[C@H](CC(N)=O)NC(=O)[C@@H](NC(=O)[C@H](Cc4ccccc4)NC(=O)[C@@H](NC(=O)[C@H](CO)NC(=O)CN)C(C)C)[C@@H](C)CC)C(C)C)CSSC[C@H](NC(=O)[C@H](CCCCN)NC(=O)CNC(=O)[C@H](C)NC(=O)[C@H](CO)NC(=O)[C@H](CCCCN)NC(=O)CNC1=O)C(=O)N[C@@H](CCSC)C(=O)N[C@@H](CC(N)=O)C(=O)NCC(=O)N[C@@H](CCCCN)C(=O)N3)C(=O)N[C@@H](CC(C)C)C(=O)N1CCC[C@H]1C(=O)N[C@@H](CCCCN)C(=O)N2 [compound 37] (H-GSVFINVKCRGSPECLPKCKEAIGKSAGKCMNGKCKCYP-OH; disulfide 9-30, 15-35, 19-37)
Resistance to Trypsin (500 U/ml) (trypsin): Low (A peptide classified as low indicates that the majority (over 75%) of the HPLC peak of the treated peptide disappeared as compared to the HPLC peak of the untreated peptide) | Resistance to Pepsin (500 U/ml) (pepsin): High (A peptide classified as high indicates that the majority (at least 75%) of the HPLC peak of the treated peptide is still present as compared to the HPLC peak of the untreated peptide)
